Reference: patent US12509460B2 (Skyhawk Therapeutics, Inc., priority 2019, dated 2025)
Where two headings read alike, the source gives them in different places.

Legend:
[1] = test system: SMN FL and SMN Δ7 in spinal muscular atrophy (SMA) patient fibroblasts (GM03813, Coriell); test: Quantitative splicing assay (SMN), qPCR; assay type: cell-based, human; conditions: read-out: SMN2 Splicing FL EC50
Protocol: Spinal muscular atrophy (SMA) patient fibroblasts (GM03813, Coriell) are plated in 96-well plates at 50,000 cells/well. […] Treated cells are lysed and cDNA synthesized using the Fast Advanced Cells-to-Ct kit (Thermofisher A35378) according to the manufacturer's instructions. 2 μL of each cDNA are used in qPCR reactions. […] Reactions are run in a Quant Studio 6 qPCR instrument with default settings.

[2] = test system: SMN protein in spinal muscular atrophy (SMA) patient fibroblasts (GM03813, Coriell); test: SMN protein assay, Mesoscale Discovery (MSD); assay type: cell-based, human; conditions: for EC50: read-out: SMN2 protein EC50
Protocol: Example A12: SMN Protein Assay
Compounds are tested on spinal muscular atrophy (SMA) patient fibroblasts (GM03813, Coriell) at doses ranging from 2.5 μM to 0.6 nM. 7000 cells/well are seeded in 96-well plates. Compounds are incubated for 48 hours and the cells were lysed with 100 μL of lysis buffer. 20 μL of lysate is used for SMN protein measurement by Mesoscale Discovery (MSD) assay developed by PharmOptima (Michigan). A standard curve prepared with SMN protein ranging from 1 μg/ml to 19.5 pg/ml is used in each MSD plate to calculate the absolute SMN protein amount in each sample.

[3] = test system: MDR1-MDCK cell monolayers; test: Blood-brain-barrier (BBB) penetration potential via MDCK-MDR1 permeability assay
MDR1 = test: as above; conditions: dog, MDCK-MDR1, pH 7.4, MDCK-MDR1: Efflux
MDR1 (P-gp) = test: as above; conditions: dog; for Papp A→B at 120 min, 5 μM: MDCK-MDR1, pH 7.4, MDCK-MDR1: Papp A-B; for Papp B→A at 120 min, 5 μM: MDCK-MDR1, pH 7.4, MDCK-MDR1: Papp B-A
[4] = test system: mHTT protein in GM04724 (CAG 70/20) Huntington's disease patient lymphoblast cells; test: mHTT protein assay, 2B7-MW1 assay via Mesoscale Discovery (MSD); assay type: cell-based, human
Protocol: Example A10: mHTT Protein Assay
Compounds are tested on GM04724 (CAG 70/20) Huntington's disease patient lymphoblast cells at doses ranging from 10 μM to 0.6 nM. 4,500 cells/well are seeded in 384 well plates. One plate replica is carried out for parallel viability testing by CellTiter Glo (CTG). Compounds are incubated for 48 hours. mHTT protein levels are assessed by the 2B7-MW1 assay via Mesoscale Discovery (MSD) as previously reported (Macdonald et al., 2014). The antibody pair is comprised of previously characterized monoclonals (2B7 and MW1) interrogating two regions for HTT conformation and biological properties: the N, 17 domain and the polyQ domain (Baldo et al., 2012; Ko et., 2001). 2B7-MW1 is […] specific levels of HTT at the time of treatment. 2B7-MW1 is dependent on polyQ expansion (e.g., the higher the expansion the higher the signal) and on mHTT size (e.g., a similar polyQ will give higher signal with smaller HTT size). The viability readout is carried out by CTG according to the manufacturer's instructions.

[5] = Homo sapiens, Fibroblast, 24 h, SMA patient fibroblasts GM03813, 24 h, qPCR
[6] = SMA patient fibroblasts GM03813, 48 hours, MSD
[7] = GM04724 Huntington's disease patient lymphoblasts
[8] = Homo sapiens, Fibroblast, 24 h, SMA patient fibroblasts (GM03813), 24 h
[9] = SMA patient fibroblasts (GM03813), 48 hours
[10] = GM04724 (CAG 70/20) Huntington's disease patient lymphoblasts

SMILES | EC50 [1, 5] [nM] | EC50 [2, 6] [nM] | MDCK-MDR1: % Recov A-B ([3]; A-B direction) [%] | MDCK-MDR1: % Recov B-A ([3]; B-A direction) [%] | efflux ratio at 120 min, 5 μM (MDR1; efflux ratio) | Papp A→B at 120 min, 5 μM (MDR1 (P-gp); A-B direction) [×10⁻⁶ cm/s] | Papp B→A at 120 min, 5 μM (MDR1 (P-gp); B-A direction) [×10⁻⁶ cm/s] | EC50 [4, 7] [nM] | EC50 [1, 8] [nM] | EC50 [2, 9] [nM] | MDCK-MDR1: % Recov A-B ([3]; A-B) [%] | MDCK-MDR1: % Recov B-A ([3]; B-A) [%] | efflux ratio at 120 min, 5 μM (MDR1) | Papp A→B at 120 min, 5 μM (MDR1 (P-gp); A-B) [×10⁻⁶ cm/s] | Papp B→A at 120 min, 5 μM (MDR1 (P-gp); B-A) [×10⁻⁶ cm/s] | EC50 [4, 10] [nM] | EC50 ([1]; SMA patient fibroblasts GM03813, 24 h, qPCR) [nM] | SMN2 protein EC50 [2, 6]
CN(c1ccc(-c2ccc(-c3ccccn3)cc2O)nn1)[C@@H]1C[C@H]2CCC[C@H](N2)[C@@H]1F [Compound 23A, 2-(6-(((1S,2S,3R,5R)-2-fluoro-9-azabicyclo[3.3.1]nonan-3-yl)(methyl)amino)pyridazin-3-yl)-5-(pyridin-2-yl)phenol] | 51 to 100 | 16 to 50 | 64 | 83 | 10 | 3.33 | 34.9 | 51 to 100 |  |  |  |  |  |  |  |  |  | 
Cc1cc(=O)c2cc(O)c(-c3ccc(N(C)[C@H]4C[C@@H]5CC[C@H]([C@H]4F)N5C)nn3)cc2o1 [Compound 99B, 7-(6-(((1R,2R,3S,5S)-2-fluoro-8-methyl-8-azabicyclo[3.2.1]octan-3-yl)(methyl)amino)pyridazin-3-yl)-6-hydroxy-2-methyl-4H-chromen-4-one] |  |  |  |  |  |  |  |  | 51 to 100 | 0.01 to 15 | 103 | 112 | 21 | 2.74 | 56.7 | 101 to 500 |  | 
COc1cc(-c2ccc(-c3ccc(N(C)[C@H]4CC5N[C@@H](C4)CC5(F)F)nn3)c(O)c2)cnn1 (single isomer, unassigned) [Compound 2A] |  | 16 to 50 | 54 | 81 | 3 | 11.3 | 39 | 16 to 50 |  |  |  |  |  |  |  |  | 16 to 50 | 
CN(c1ccc(-c2cc3oc(C(=O)N4CCC4)cc3cc2O)nn1)[C@@H]1C[C@H]2CC[C@H](N2)[C@@H]1F [Compound 112A, azetidin-1-yl(6-(6-(((1S,2S,3R,5R)-2-fluoro-8-azabicyclo[3.2.1]octan-3-yl)(methyl)amino)pyridazin-3-yl)-5-hydroxybenzofuran-2-yl)methanone] |  |  |  |  |  |  |  |  | 51 to 100 | 0.01 to 15 | 95 | 78 | 74 | 0.6 | 43.8 | 51 to 100 |  | 
Cc1ccc(-c2ccc(-c3ccc(N(C)[C@@H]4C[C@H]5CC[C@H](N5)[C@@H]4F)nn3)c(O)c2)nn1 (single isomer, unassigned) [Compound 25A] | 101 to 500 | 0.01 to 15 | 99 | 99 | 31 | 1.79 | 55 | 101 to 500 |  |  |  |  |  |  |  |  |  | 
CN(c1ccc(-c2cc3c(F)cn(C)c(=O)c3cc2O)nn1)[C@@H]1C[C@H]2CC[C@H](N2)[C@@H]1F [Compound 54A, 4-fluoro-6-(6-(((1S,2S,3R,5R)-2-fluoro-8-azabicyclo[3.2.1]octan-3-yl)(methyl)amino)pyridazin-3-yl)-7-hydroxy-2-methylisoquinolin-1(2H)-one] | 16 to 50 | 0.01 to 15 | 108 | 115 | 23 | 3.54 | 82.6 |  |  |  |  |  |  |  |  |  |  | 
CN(c1ccc(-c2cc(F)c(-c3ccn(C)c(=O)c3)cc2O)nn1)[C@@H]1C[C@H]2CC(F)(F)[C@@H](C1)N2 [Compound 22A, 4-(4-(6-(((1S,3R,5R)-6,6-difluoro-8-azabicyclo[3.2.1]octan-3-yl)(methyl)amino)pyridazin-3-yl)-2-fluoro-5-hydroxyphenyl)-1-methylpyridin-2(1H)-one] | 0.01 to 15 | 0.01 to 15 | 86 | 94 | 45 | 1.82 | 80.9 |  |  |  |  |  |  |  |  |  |  | 
CN(c1ccc(-c2cc3cccnc3cc2O)nn1)[C@@H]1C[C@H]2CC[C@H](N2)[C@@H]1F [Compound 74A, 6-(6-(((1S,2S,3R,5R)-2-fluoro-8-azabicyclo[3.2.1]octan-3-yl)(methyl)amino)pyridazin-3-yl)quinolin-7-ol] | 101 to 500 | 16 to 50 | 69 | 81 | 14 | 3.13 | 44.5 | 16 to 50 |  |  |  |  |  |  |  |  |  | 
Cc1ccc(-c2ccc(-c3ccc(N(C)[C@@H]4C[C@H]5CCC[C@H](N5)[C@@H]4F)nn3)c(O)c2)nn1 [Compound 27A, 2-(6-(((1S,2S,3R,5R)-2-fluoro-9-azabicyclo[3.3.1]nonan-3-yl)(methyl)amino)pyridazin-3-yl)-5-(6-methylpyridazin-3-yl)phenol] | 51 to 100 | 0.01 to 15 | 90 | 86 | 43 | 1.08 | 46.6 | 101 to 500 |  |  |  |  |  |  |  |  |  | 
CN(c1ccc(-c2ccc(-n3cnc(C#N)c3)cc2O)nn1)[C@@H]1C[C@H]2CC[C@H](N2)[C@@H]1F [Compound 69A, 1-(4-(6-(((1S,2S,3R,5R)-2-fluoro-8-azabicyclo[3.2.1]octan-3-yl)(methyl)amino)pyridazin-3-yl)-3-hydroxyphenyl)-1H-imidazole-4-carbonitrile] | 51 to 100 | 16 to 50 | 87 | 86 | 29 | 1.36 | 39.4 | 101 to 500 |  |  |  |  |  |  |  |  |  | 
CN(c1ccc(-c2ccc(C#N)cc2O)nn1)[C@@H]1C[C@H]2CC[C@H](N2)[C@@H]1F [Compound 38A, 4-(6-(((1S,2S,3R,5R)-2-fluoro-8-azabicyclo[3.2.1]octan-3-yl)(methyl)amino)pyridazin-3-yl)-3-hydroxybenzonitrile] | 16 to 50 |  | 83 | 85 | 3 | 13 | 39.2 | 101 to 500 |  |  |  |  |  |  |  |  |  | E (501 ≤ E ≤ 10.000)
CN(c1ccc(-c2ccc(-n3cnc(C#N)c3)cc2O)nn1)[C@H]1C[C@@H]2CCC[C@@H](N2)[C@H]1F [Compound 63B, 1-(4-(6-(((1R,2R,3S,5S)-2-fluoro-9-azabicyclo[3.3.1]nonan-3-yl)(methyl)amino)pyridazin-3-yl)-3-hydroxyphenyl)-1H-imidazole-4-carbonitrile] | 16 to 50 | 0.01 to 15 | 72 | 96 | 19 | 2.31 | 44.9 | 16 to 50 |  |  |  |  |  |  |  |  |  | 
CN(c1ccc(-c2cc3c(F)cn(C)c(=O)c3cc2O)nn1)[C@H]1C[C@@H]2CC[C@@H](N2)[C@H]1F [Compound 54B, 4-fluoro-6-(6-(((1R,2R,3S,5S)-2-fluoro-8-azabicyclo[3.2.1]octan-3-yl)(methyl)amino)pyridazin-3-yl)-7-hydroxy-2-methylisoquinolin-1(2H)-one] | 0.01 to 15 | 0.01 to 15 | 99 | 107 | 27 | 2.28 | 61.5 |  |  |  |  |  |  |  |  |  |  | 
